Reference: patent US20250127863A1, “ANTIMICROBIAL PEPTIDE FOR ONYCHOMYCOSIS” (CBMR SCIENTIFIC NANOSCIENCE B.V., priority 2019, published 2025)
No end group written: not given here.

How the values were obtained:
[1] = tested on: Trichophyton interdigitalis; type: cell-based
Procedure: (§1) The minimum inhibitory concentration (MIC) value is defined as the lowest sample concentration that inhibited growth. In the Examples, the MIC90 value is presented, which MIC90 values are determined according to established methods known to the person with the skills in the relevant art. Experiments; 1×10E5 CFU of various strains/ml were incubated for 24-48 h at 37° C. in 4× diluted medium of RPMI 1640 with the indicated concentrations of antimicrobial peptide hLF(1-11) [SEQ ID NO: 3]. As controls various strains cells were incubated for 24-48 h at 37° C. with no agent (antimicrobial peptide), and subsequently, growth of the microbial organism (e.g. yeast, bacterium) was monitored by using spectrophotometry with a spectrophotometer at 620 nm. […] ND=Not done. Representative single assay data are listed rather than a range, for clarity reasons and for ease of comparison of peptide efficacy. The MIC was calculated as the lowest antibiotic (antimicrobial peptide) concentration at which growth of the assessed yeast or bacterium (microbe) was inhibited (inhibitory concentration IC90).
(§2) For two patients D, E who were treated with a solution comprising the high concentration of the antimicrobial peptide, in their nail samples strains of Trichophyton interdigitalis and Hypercrealis spp. were determined. […]

[2] = tested on: Hypercrealis spp.; type: cell-based; conditions: Hypercrealis spp. strain from nail samples of patients D, E
Procedure: as §1, §2

[3] = tested on: C. glabrata CBS-138; test: MIC90 growth inhibition; type: cell-based, Candida glabrata; conditions: RPMI 1640 one-fourth strength
Procedure: as §1

[4] = tested on: C. glabrata spp.; test: MIC90 growth inhibition; type: cell-based, Candida glabrata; conditions: RPMI 1640 one-fourth strength
Procedure: as §1

[5] = tested on: Trichoderma viride; test: IC50 growth inhibition; type: cell-based
[6] = tested on: Rhizoctonia solani; test: IC50 growth inhibition; type: cell-based
[7] = tested on: onychomycosis; test: Application of the composition by human subjects (Example 1); type: in vivo
Procedure: The concentration of the antimicrobial peptide in the composition used for the treatment of onychomycosis by human subjects, was 30 mg/l ([…]).
The composition used comprises the antimicrobial peptide hLF1-11 (GRRRRSVQWCA) [SEQ ID NO: 3] and is a clear colorless liquid in a (glass) bottle with a dropper to facilitate application to the nail. […] The antimicrobial peptide is completely biodegradable.
The composition is applied twice a day to the affected nail and cuticle, preferably in the morning and in the evening. Hold the tip of the dropper above the nail. Avoid direct contact between the dropper providing the solution and the infected nail to keep liquid clean. Squeeze the tube gently and drop the drop onto the cuticle/proximal fold. It is preferred to cover the whole nail with a thin layer of the solution. In particular cases it is important that the solution is also applied under the edge of the affected nail (on the distal nail bed) e.g. with a cotton swab, in particular when the infection started from there. Allow the nail to dry for a few minutes after application. The treatment duration varies depending on the severity of the infection; in many cases 3-6 months of treatment may be necessary. For optimal results, continue the treatment until a new healthy nail has fully grown. […] Reference is made to FIG. 1.

With “GRRRRSVQWCA [hLF1-11, Gly Arg Arg Arg Arg Ser Val Gln Trp Cys Ala]” the MIC90 value [1] was 50 µg/mL, the MIC90 value [2] was 50 µg/mL and the “Inhibitory concentration MIC (MIC90)” value [3] was “MIC = 25 μg/mL”. For the same sequence, the “Inhibitory concentration MIC (MIC90)” value [4] was “MIC = 25 μg/mL”, the “Inhibitory concentration IC50” value [5] was “IC50 = 952 μg/mL” and the “Inhibitory concentration IC50” value [6] was “IC50 = 121 μg/mL”. For the same sequence, the “recurrent infection in treated patients” value ([7]; after 4 months or even longer) was “do not show signs of recurrent infection” and the “time to first visible improvements” value ([7]; twice daily application, 30 mg/l composition) was “two to four”.
